Structures can show the parent of a compound that is named as a salt.
Molecular target: wild type human HSD17B13 (Homo sapiens (Human), UniProt Q7Z5P4)
Test: HEK_Beta-Est LCMS_IC50_Tekcel, whole-cell HEK-HSD17B13 inhibition assay, estrone production by LCMS
Format: cell-based
Settings: geometric mean, HEK cells stably expressing wild type human HSD17B13, 25 μM FAC beta-estradiol, read-out: HEK_Beta-Est LCMS_IC50—Tekcel GMean IC50
Description: HEK_Beta-Est LCMS_IC50_Tekcel
Inhibition potency of test compounds was determined using a whole-cell HEK-HSD17B13 inhibition assay, utilizing a LCMS readout.
HSD17B13 uses the oxidized form of nicotinamide adenine dinucleotide (NAD+) as a cofactor during metabolism of beta-estradiol (substrate), converting NAD+ to the reduced form (NADH) and beta-estradiol to its product (estrone). Estrone production is quantified by LCMS, and used as a measure of HSD17B13 enzyme activity.
([…]: 5% CO2). […] Growth media was then removed from the cell plates and replaced with 10 μL of 2×FAC test compound, and incubated for 1 hour (with lid) at 37° C. […] The reaction was incubated for 2 hours (with lid) at 37° C. […] Amount of product (estrone) was then quantified by LCMS. Data expressed as product area ratio (PAR) were then normalized to control wells using Activity Base (IDBS). Zero percent effect (ZPE) was defined as PAR generated from uninhibited HSD17B13 (vehicle control).

wild type human HSD17B13, sequence (Q7Z5P4 20-300): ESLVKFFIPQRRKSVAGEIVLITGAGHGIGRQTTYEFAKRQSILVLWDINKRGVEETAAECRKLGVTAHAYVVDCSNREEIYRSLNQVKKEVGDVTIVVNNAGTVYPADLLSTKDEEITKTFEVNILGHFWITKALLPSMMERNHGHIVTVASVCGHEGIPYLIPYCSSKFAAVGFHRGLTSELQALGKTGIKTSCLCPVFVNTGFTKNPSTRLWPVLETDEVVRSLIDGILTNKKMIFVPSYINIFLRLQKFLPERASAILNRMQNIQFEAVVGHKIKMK

| SMILES | IC50 [nM] |
| --- | --- |
| O=C(NC[C@]12CC[C@](n3cc4ccc(-c5ncccn5)cc4n3)(CC1)CC2)c1cc(F)c(O)c(F)c1 [Example 207, 3,5-difluoro-4-hydroxy-N-({4-[6-(pyrimidin-2-yl)-2H-indazol-2-yl]bicyclo [2.2.2]octan-1-yl}methyl)benzamide] | 140 |
| Cn1ncc(-c2ccc3cn([C@H]4CC[C@H](CNC(=O)c5cc(F)c(O)c(F)c5)CC4)nc3c2)n1 [Example 92, 3,5-difluoro-4-hydroxy-N-({(1r,4r)-4-[6-(2-methyl-2H-1,2,3-triazol-4-yl)-2H-indazol-2-yl]cyclohexyl}methyl)benzamide] | 130 |
| O=C(NC[C@]12CC[C@](n3cc4ccc(-c5cnccn5)cc4n3)(CC1)CC2)c1cc(F)c(O)c(F)c1 [Example 208, 3,5-difluoro-4-hydroxy-N-({4-[6-(pyrazin-2-yl)-2H-indazol-2-yl]bicyclo [2.2.2]octan-1-yl}methyl)benzamide] | 120 |
| O=C(NC[C@H]1CC[C@H](c2cn3cc(-c4cnn(C(F)F)c4)ccc3n2)CC1)c1cc(F)c(O)c(F)c1F [Example 167, N-{[(1r,4r)-4-{6-[1-(difluoromethyl)-1H-pyrazol-4-yl]imidazo [1,2-a]pyridin-2-yl}cyclohexyl]methyl}-2,3,5-trifluoro-4-hydroxy-benzamide, trifluoroacetate salt] | 200 |
| Cc1cn(-c2ccc3cn([C@H]4CC[C@H](CNC(=O)c5cc(F)c(O)c(F)c5F)CC4)nc3c2)cn1 [Example 163, 2,3,5-trifluoro-4-hydroxy-N-({(1r,4r)-4-[6-(4-methyl-1H-imidazol-1-yl)-2H-indazol-2-yl]cyclo-hexyl}methyl) benzamide] | 330 |
| Cc1cc(-c2ccc3cn([C@H]4CC[C@H](CNC(=O)c5cc(F)c(O)c(F)c5)CC4)nc3c2)ccn1 [Example 81, 3,5-difluoro-4-hydroxy-N-({(1r,4r)-4-[6-(2-methylpyridin-4-yl)-2H-indazol-2-yl]cyclohexyl}methyl) benzamide, trifluoroacetate salt] | 120 |
| Cc1nc(-c2ccc3cn([C@H]4CC[C@H](CNC(=O)c5cc(F)c(O)c(F)c5)CC4)nc3c2)cs1 [Example 94, 3,5-difluoro-4-hydroxy-N-({(1r,4r)-4-[6-(2-methyl-1,3-thiazol-4-yl)-2H-indazol-2-yl]cyclohexyl}methyl) benzamide] | 140 |
| COc1cc(-c2ccc3cn([C@H]4CC[C@H](CNC(=O)c5cc(F)c(O)c(F)c5)CC4)nc3c2)ccn1 [Example 106, 3,5-difluoro-4-hydroxy-N-({(1r,4r)-4-[6-(2-methoxypyridin-4-yl)-2H-indazol-2-yl]cyclohexyl}methyl) benzamide, trifluoroacetate salt] | 150 |
| O=C(NC[C@H]1CC[C@H](n2cc3ccc(-c4cccn5ncnc45)cc3n2)CC1)c1cc(F)c(O)c(F)c1 [Example 113, 3,5-difluoro-4-hydroxy-N-({(1r,4r)-4-[6-([1,2,4]triazolo[1,5-a]pyridin-8-yl)-2H-indazol-2-yl]cyclohexyl}methyl) benzamide, trifluoroacetate salt] | 320 |
| Cn1cc(-c2ccc3cn([C@]45CC[C@](CNC(=O)c6cc(F)c(O)c(F)c6)(CC4)CC5)nc3c2)cn1 [Example 204, 3,5-difluoro-4-hydroxy-N-({4-[6-(1-methyl-1H-pyrazol-4-yl)-2H-indazol-2-yl]bicyclo[2.2.2]octan-1-yl}methyl)benzamide] | 99 |
| O=C(NC[C@H]1CC[C@H](c2nc(-c3cnc(C(F)(F)F)cn3)no2)CC1)c1cc(F)c(O)cc1F [Example 149, 2,5-difluoro-4-hydroxy-N-{[(1r,4r)-4-{3-[5-(trifluoromethyl)pyrazin-2-yl]-1,2,4-oxadiazol-5-yl}cyclohexyl]methyl} benzamide] | 430 |
| O=C(NC[C@H]1CC[C@H](n2cc3ccc(-c4ncc(C5CC5)s4)cc3n2)CC1)c1cc(F)c(O)c(F)c1 [Example 105, N-({(1r,4r)-4-[6-(5-cyclopropyl-1,3-thiazol-2-yl)-2H-indazol-2-yl]cyclohexyl}methyl)-3,5-difluoro-4-hydroxybenzamide] | 370 |

Second part, the compound after the results:

| IC50 [nM] | SMILES |
| --- | --- |
| 120 | O=C(NC[C@H]1CC[C@H](n2cc3ccc(-c4ncns4)cc3n2)CC1)c1cc(F)c(O)c(F)c1 [Example 82, 3,5-difluoro-4-hydroxy-N-({(1r,4r)-4-[6-(1,2,4-thiadiazol-5-yl)-2H-indazol-2-yl]cyclohexyl}methyl) benzamide] |
| 110 | O=C(NC[C@H]1CC[C@H](n2cc3ccc(-c4nccs4)cc3n2)CC1)c1cc(F)c(O)c(F)c1 [Example 110, 3,5-difluoro-4-hydroxy-N-({(1r,4r)-4-[6-(1,3-thiazol-2-yl)-2H-indazol-2-yl]cyclohexyl}methyl) benzamide] |
| 200 | O=C(NC[C@H]1CC[C@H](n2cc3ccc(-c4cnn5ccccc45)cc3n2)CC1)c1cc(F)c(O)c(F)c1 [Example 80, 3,5-difluoro-4-hydroxy-N-({(1r,4r)-4-[6-(pyrazolo[1,5-a]pyridin-3-yl)-2H-indazol-2-yl]cyclohexyl}methyl) benzamide, trifuoroacetate salt] |
| 430 | O=C(NC[C@H]1CC[C@H](n2cc3cnc(-c4cccnc4)cc3n2)CC1)c1cc(F)c(O)c(F)c1 [Example 189, 3,5-difluoro-4-hydroxy-N-({(1r,4r)-4-[6-(pyridin-3-yl)-2H-pyrazolo[4,3-c]pyridin-2-yl]cyclohexyl}methyl) benzamide] |
| 230 | Cc1cccc(-c2ccc3cn([C@H]4CC[C@H](CNC(=O)c5cc(F)c(O)c(F)c5)CC4)nc3c2)n1 [Example 118, 3,5-difluoro-4-hydroxy-N-({(1r,4r)-4-[6-(6-methylpyridin-2-yl)-2H-indazol-2-yl]cyclohexyl}methyl) benzamide, trifluoroacetate salt] |
| 480 | CC(C)(C)OC(=O)N[C@]12CC[C@](CNC(=O)c3cc(F)c(O)c(F)c3)(CC1)CC2 [Example 192, tert-butyl {4-[(3,5-difluoro-4-hydroxybenzamido)methyl]bicyclo[2.2.2]octan-1-yl}carbamate] |
| 190 | O=C(NC[C@H]1CC[C@H](n2cc3ccc(-n4cccn4)cc3n2)CC1)c1cc(F)c(O)c(F)c1F [Example 158, 2,3,5-trifluoro-4-hydroxy-N-({(1r,4r)-4-[6-(1H-pyrazol-1-yl)-2H-indazol-2-yl]cyclohexyl}methyl) benzamide, trifluoroacetate salt] |
| 130 | Cc1cc(-c2ccc3cn([C@H]4CC[C@H](CNC(=O)c5cc(F)c(O)c(F)c5)CC4)nc3c2)ncn1 [Example 87, 3,5-difluoro-4-hydroxy-N-({(1r,4r)-4-[6-(6-methylpyrimidin-4-yl)-2H-indazol-2-yl]cyclohexyl}methyl) benzamide] |
| 110 | O=C(NC[C@H]1CC[C@H](n2cc3ccc(-c4ccsn4)cc3n2)CC1)c1cc(F)c(O)c(F)c1 [Example 98, 3,5-difluoro-4-hydroxy-N-({(1r,4r)-4-[6-(1,2-thiazol-3-yl)-2H-indazol-2-yl]cyclohexyl}methyl) benzamide] |
| 310 | Cc1ccn(-c2ccc3cn([C@H]4CC[C@H](CNC(=O)c5cc(F)c(O)c(F)c5F)CC4)nc3c2)n1 [Example 162, 2,3,5-trifluoro-4-hydroxy-N-({(1r,4r)-4-[6-(3-methyl-1H-pyrazol-1-yl)-2H-indazol-2-yl]cyclohexyl}methyl) benzamide] |
| 65 | O=C(NC[C@H]1CC[C@H](n2cc3ccc(-c4cnsc4)cc3n2)CC1)c1cc(F)c(O)c(F)c1 [Example 100, 3,5-difluoro-4-hydroxy-N-({(1r,4r)-4-[6-(1,2-thiazol-4-yl)-2H-indazol-2-yl]cyclohexyl}methyl)benzamide] |
| 380 | Cn1nc(-c2noc([C@]34CC[C@](CNC(=O)c5cc(F)c(O)c(F)c5F)(CC3)CC4)n2)ccc1=O [Example 168, 2,3,5-trifluoro-4-hydroxy-N-({4-[3-(1-methyl-6-oxo-1,6-dihydropyridazin-3-yl)-1,2,4-oxadiazol-5-yl]bicyclo[2.2.2]octan-1-yl}methyl) benzamide] |
| 130 | O=C(NC[C@]12CC[C@@](c3nc(-c4ncc(C(F)(F)F)cn4)no3)(CC1)CC2)c1cc(F)c(O)c(F)c1F [Example 3, 2,3,5-Trifluoro-4-hydroxy-N-[(4-{3-[5-(trifluoromethyl)pyrimidin-2-yl]-1,2,4-oxadiazol-5-yl}bicyclo[2.2.2]octan-1-yl)methyl]benzamide] |
| 240 | O=C(NC[C@H]1CC[C@H](n2cc3ccc(-n4cc(C(F)(F)F)cn4)cc3n2)CC1)c1cc(F)c(O)c(F)c1F [Example 11, 2,3,5-Trifluoro-4-hydroxy-N-{[(1r,4r)-4-{6-[4-(trifluoromethyl)-1H-pyrazol-1-yl]-2H-indazol-2-yl}cyclohexyl]methyl}benzamide, trifluoroacetate salt] |
| 120 | O=C(NC[C@H]1CC[C@H](n2cc3cc(-c4cscn4)ccc3n2)CC1)c1cc(F)c(O)c(F)c1 [Example 155, 3,5-difluoro-4-hydroxy-N-({(1r,4r)-4-[5-(1,3-thiazol-4-yl)-2H-indazol-2-yl]cyclohexyl}methyl) benzamide] |
| 180 | O=C(NC[C@]12CC[C@@](n3cc4ccc(-c5ncccn5)cc4n3)(CC1)CC2)c1cc(F)c(O)c(F)c1F [Example 7, 2,3,5-Trifluoro-4-hydroxy-N-({4-[6-(pyrimidin-2-yl)-2H-indazol-2-yl]bicyclo[2.2.2]octan-1-yl}methyl)benzamide] |

From patent US20240150334A1, “HSD17B13 INHIBITORS AND/OR DEGRADERS” (Pfizer Inc., priority 2022, published 2024)
